In patent publication US9856259B2, “Heterocyclic compounds and uses thereof” (Plexxikon Inc., priority 2014, dated 2018):

How the values were obtained:
BRD4-BD12 = target: T1, BRD4-BD12 (Homo sapiens, UniProt O60885); assay: Alphascreen binding assay, BRD4(1 2) H4; conditions: BRD4 dual bromodomains with acetylated Histone 4 peptide, read-out: Biochemical activity (IC50 μM) BRD4(1 2) H4
T1 construct: dual bromodomains (BRD4-BD12 (1-477), BRD4-BD12 (1-472)); six-His tag (N); made in house; host or cells: E. coli BL21-CodonPlus (DE3)
Method: Binding of compounds of formula (I) with bromodomain 2, 3 4 was assessed using Alphascreen binding assay. The inhibition of the interaction between bromodomain and its acetylated target protein (Filippakopoulos P et al. 2012) was measured quantitatively using recombinant BRD proteins, an acetylated Histone 4 peptide and AlphaScreen™ technology. In absence of inhibition the BRD protein bound to AlphaScreen™ nickel chelate acceptor beads can interact with the acetylated Histone 4 peptide which is immobilized by the AlphaScreen™ Streptavidin coated beads. This interaction brings donor and acceptor beads in proximity. The close proximity allows the singlet oxygen produced by laser excitation of the donor beads to reach the acceptor beads and generate a luminescence signal. BRD inhibitors result in a decrease in the proximity signal through an inhibition of the BRD acetylated peptide interaction.
Recombinant human bromodomains containing the N-terminal bromodomain (BRD2-BD1 (71-194), BRD3-BD1 (24-144) and BRD4-BD1 (44-164)) or dual bromodomains (BRD4-BD12 (1-477), BRD4-BD12 (1-472)) were prepared and purified as described in protein expression and purification session. The peptide is human Histone H41-21K5AcK8AcK12AcK16Ac-Biotin (Anaspec Calif., USA).
Protocol for BRD2, BRD3 and BRD4 assay: All components are prepared in buffer composed of 50 mM HEPES pH 7.5, 100 mM NaCl, 0.01% BSA, 0.01% Triton X-100, 2 mM DTT. 7 μL of Bromodomain protein and 7 μL of peptide are added to wells containing 1 μL of various concentrations of test compounds of formula (I) or DMSO vehicle in an Alphaplate (PerkinElmer Ga., USA) and incubated for 1 hour at room temperature. 4 μL donor and acceptor bead mixture is then added with final concentrations of 7.5 μg/ml. 30 minutes after bead addition, Alpha signal is read on the Envision spectrometer (λEx 680 nm, λEm 520-620 nm). Final concentrations of bromodomain proteins and peptide are as shown below.
All data was normalized to the mean of 16 high and 16 low control wells on each plate. A four parameter curve fit of the following formula was then applied: Y=a+(b−a)/(1+(x/c)^d) Where ‘a’ is the minimum, ‘b’ is the maximum, ‘c’ is the pIC50 and ‘d’ is the Hill slope. Protein Expression and Purification
Recombinant human bromodomains containing the N-terminal bromodomain (BRD2-BD1 (71-194), BRD3-BD1 (24-144) and BRD4-BD1 (44-164)) or dual bromodomains (BRD4-BD12 (1-477), BRD4-BD12 (1-472)) were expressed in E. coli cells (in a modified pET vector) with an N-terminal six-His tag and purified using a combination of both IMAC (Ni-affinity) and size exclusion chromatography steps.
Recombinant BRD proteins were expressed using the E. coli strain BL21-CodonPlus (DE3) (Agilent Technologies CA, USA). Cells were grown in Terrific Broth (TB) media to an OD600 of 1.2 at 37° C. at which temperature was reduced to 25° C., protein was induced with 1.0 mM IPTG for 12-18 hours and harvested by centrifugation at 8000×g for 20 minutes. Cells were re-suspended in 0.1M KPO4 pH 8.0, 250 mM NaCl, 10% Glycerol, 0.75% NP-40, 25 mM Imidazole, 5 mM BME with 0.2 mg/ml Lysosyme, 2.0 mM PMSF, 25 μg/ml DNAse I, incubated on ice for 30 minutes and lyzed with a cell disruptor (MicroFluidics MA, USA). The lysate was clarified by centrifugation at 20,000×g for 2 hours. The protein was captured with Ni-NTA resin (Life Technologies, USA). Contaminating proteins were washed off with 25 mM Tris-HCl pH 8.3, 250 mM NaCl, 12% Glycerol and 50 mM Imidazole. Following 3× wash steps, protein was eluted step wise using a 50 mM HEPES pH 7.5, 500 mM NaCl and 400 mM Imidazole. The protein was further purified using Gel Filtration column 26/600 Superdex 200 (GE Biosciences N.J., USA) in 50 mM HEPES pH 7.5, 250 mM NaCl. The protein was aliquoted and flash-frozen in liquid Nitrogen.

MV-4-11 = assay: Oncology cell growth assay, MV-4-11 3 d growth; assay type: cell-based; conditions: Homo sapiens, MV4-11; MV-4-11 cells, 72 hours, CellTiter Glo; read-out: Cell activity (IC50 μM) MV-4-11 3 d-Growtb
Method: (§1) In this study, we test compounds in different cancer cell lines. MV-4-11 and MOLM-13 are AML cell lines harboring a MLL-AF4 and MLL-AF9 translocation, respectively. MM.1S is a multiple myeloma cell line. SK—N-AS, IMR-32 and SK-N-BE(2) are neuroblastoma cell lines. IMR-32 and SK-N-BE(2) cell lines harbor MYCN amplifications.
(§2) MV-4-11, MM.1S, IMR-32, SK-N-AS and SK-N-BE(2) were obtained from ATCC (IL, USA) and MOLM-13 were purchased from DSMZ (Braunschweig, German). Cells are cultured as recommended by their sources. For growth inhibition studies 3000 cells are seeded in wells of a 96-well plate in 75 μL of culture media. After several hours, growth media containing compounds of formula (I) are added to the wells. Compound at a maximal concentration of 5 mM was serially diluted 1:3 for a total of 8 point titration with DMSO as a control. A 1 μL aliquot of each dilution point is added to 249 μL growth media and 75 μL is added to each well containing cells, providing 10 μM compound at the maximum concentration point. The final concentration of DMSO in all wells is 0.2%. Cells are incubated for 72 hours, and 25 μL of CellTiter Glo Reagent (Promega Ga., USA) is added to each well. Plates are shaken for approximately 10 minutes and chemiluminescent signal is read on Tecan microplate reader. The measured luminescence correlates directly with cell number.
(§3) All data is normalized to the mean of eight DMSO high control wells on each plate. A four parameter curve fit of the following formula was then applied: Y=a+(b−a)/(1+(x/c)^d) Where ‘a’ is the minimum, ‘b’ is the maximum, ‘c’ is the pIC50 and ‘d’ is the Hill slope. […] Myc Reporter Assay

[1] = test system: cancer cell lines / MV-4-11 Myc reporter cell line; assay: Bromodomain cell assays of Example 8 (at least one of them); assay type: cell-based; conditions: Homo sapiens, MV4-11; at least one of the bromodomain cell assays described in Example 8
Method: as §1, §2, §3
In MV-4-11 cells, BRD2, BRD3 and BRD4 bind to the promoter region of MYC and regulate its transcription (Dawson M A et al. 2011). The literature bromodomain inhibitor iBET 151 could disrupt BRD4 recruitment to the MYC promoter and subsequently downregulate c-myc transcription (Dawson M A et al. 2011). Myc protein is a transcription factor that heterodimerizes with an obligatory partner Max and regulates the transcription of genes important for cell proliferation, differentiation, and apoptosis. This Myc reporter assay is used to monitor the inhibitory effect of compound of formula (I) on Myc dependent gene expression. Effective compounds could have potential therapeutic effects in Myc-driven tumors.
The MV-4-11 Myc reporter cell line is established by infecting MV-4-11 with VSV-g pseudotyped lentivirus expressing the firefly luciferase gene under the control of a minimal (m) CMV promoter and tandem repeats of the E-box transcriptional response element (TRE) (Qiagen IL, USA) and selecting cells in 2.5 μg/ml Puromycin.
The MV-4-11 Myc reporter cell line is maintained in Iscove's Modified Dulbecco's Medium containing 10% FBS, 1% PenStep and 2.5 μg/ml Puromycin. Cells are incubated at 37° C. in a humidified atmosphere with 5% CO2. 25,000 cells are seeded in 96-well plate in 50 μL of culture media. After several hours, growth media containing 2× compounds are added to the wells. Compound at a maximal concentration of 5 mM is serially diluted 1:3 for a total of 8 point titration. A 1 μl aliquot of each dilution point is added to 249 μl growth media and 50 μl is added to each well containing cells, providing 10 μM compound at the maximum concentration point. DMSO treated cells serve as a high control and 10 μM JQ1 treated cells serve as a low control. Cells are incubated for a further 24 hours and 25 μL of CellTiter-Fluo Reagent (Promega Ga., USA) is added to each well. Plates are shaken for approximately 2 minutes and incubated at 37° C. for 0.5 hour. Fluorescence signal is read in a Tecan Plate reader (λex=400 nm, λcm=505 nm). 25 μL of One-Glo Reagent (Promega Ga., USA) is then added to the plates. Chemiluminescent signal is read on Tecan plate reader. Values from the wells with no cells are subtracted from all samples for background correction. […]

Row | Structure (SMILES) | IC50 (BRD4-BD12) [µM] | IC50 (MV-4-11) [µM] | IC50 [1] [µM]
1 | Cc1noc(C)c1-c1ccc2c(-c3cnn(C)c3)nn(CC3CCC(F)(F)CC3)c2c1 [Compound P-2001, 4-[1-[(4,4-difluorocyclohexyl)methyl]-3-(1-methylpyrazol-4-yl)indazol-6-yl]-3,5-dimethyl-isoxazole] | ≤ 1 | ≤ 1 | < 10
2 | Cc1noc(C)c1-c1cnc2c(-c3ccc(C#N)nc3)cn([C@@H](C)c3ccccn3)c2n1 [Compound P-2055, 5-[3-(3,5-dimethylisoxazol-4-yl)-5-[(1S)-1-(2-pyridyl)ethyl]pyrrolo[2,3-b]pyrazin-7-yl]pyridine-2-carbonitrile] | ≤ 1 | ≤ 1 | < 10
3 | Cc1noc(C)c1-c1cnc2c(-c3ccc(CC(=O)O)cc3)cn(C(c3ccccc3)c3ccccn3)c2n1 (stereo not drawn) [Compound P-2048, 2-[4-[3-(3,5-dimethylisoxazol-4-yl)-5-[phenyl(2-pyridyl)methyl]pyrrolo[2,3-b]pyrazin-7-yl]phenyl]acetic acid] | ≤ 1 | ≤ 1 | < 10
4 | COC(=O)Cc1ccc(-c2cn(C(c3ccccc3)c3ccccn3)c3nc(-c4c(C)noc4C)cnc23)cc1 (stereo not drawn) [Compound P-2047, methyl 2-[4-[3-(3,5-dimethylisoxazol-4-yl)-5-[phenyl(2-pyridyl)methyl]pyrrolo[2,3-b]pyrazin-7-yl]phenyl]acetate] | ≤ 1 | ≤ 1 | < 10
5 | Cc1noc(C)c1-c1ccc2c(-c3ccc(CC(=O)O)cc3)nn(C(c3ccccc3)c3ccccn3)c2c1 (stereo not drawn) [Compound P-2009, 2-[4-[6-(3,5-dimethylisoxazol-4-yl)-1-[phenyl(2-pyridyl)methyl]indazol-3-yl]phenyl]acetic acid] | ≤ 1 | ≤ 1 | < 10
6 | Cc1noc(C)c1-c1cnc2c(c1)ncn2C(c1ccccc1)c1ccccn1 (stereo not drawn) [Compound P-2104, 3,5-dimethyl-4-[3-[phenyl(2-pyridyl)methyl]imidazo[4,5-b]pyridin-6-yl]isoxazole] | 1 to 10 | 10 to 200 | < 10
7 | Cc1noc(C)c1-c1cnc2c(-c3ccc(C(=O)O)cc3)cn(C(c3ccccc3)c3ccccn3)c2n1 (stereo not drawn) [Compound P-2046, 4-[3-(3,5-dimethylisoxazol-4-yl)-5-[phenyl(2-pyridyl)methyl]pyrrolo[2,3-b]pyrazin-7-yl]benzoic acid] | ≤ 1 | ≤ 1 | < 10
8 | Cc1noc(C)c1-c1ccc2c(-c3cnn(CC(F)(F)F)c3)nn(CC3CCC(F)(F)CC3)c2c1 [Compound P-2002, 4-[1-[(4,4-difluorocyclohexyl)methyl]-3-[1-(2,2,2-trifluoroethyl)pyrazol-4-yl]indazol-6-yl]-3,5-dimethyl-isoxazole] | ≤ 1 | ≤ 1 | < 10
9 | Cc1noc(C)c1-c1cnc2c(n1)c(CC1CCC(F)(F)CC1)cn2-c1ccc(C(=O)O)cn1 [Compound P-2078, 6-[7-[(4,4-difluorocyclohexyl)methyl]-2-(3,5-dimethylisoxazol-4-yl)pyrrolo[2,3-b]pyrazin-5-yl]pyridine-3-carboxylic acid] | ≤ 1 | 1 to 10 | < 10
10 | Cc1noc(C)c1-c1ccc2c(I)nn([C@@H](C)c3ccccn3)c2c1 [Compound P-2010, 4-[3-iodo-1-[(1S)-1-(2-pyridyl)ethyl]indazol-6-yl]-3,5-dimethyl-isoxazole] | ≤ 1 | ≤ 1 | < 10
11 | [2H]C([2H])(C1CCC(F)(F)CC1)n1nc(-c2cnn(C(F)F)c2)c2ncc(-c3c(C)noc3C)cc21 [Compound P-2084, 4-[1-[dideuterio-(4,4-difluorocyclohexyl)methyl]-3-[1-(difluoromethyl)pyrazol-4-yl]pyrazolo[4,3-b]pyridin-6-yl]-3,5-dimethyl-isoxazole] | ≤ 1 | ≤ 1 | < 10
